Where two headings read alike, the source gives them in different places.
What was measured:
[1] = test system: pSTAT1(2)-luciferase reporter in HeLa cells triggered with human OSM; test: JAK-STAT signalling assay; format: cell-based; details: HeLa cells, pSTAT1(2)-luciferase reporter, human OSM 33 ng/mL, read-out: JAK-STAT IC50
Outline: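 Compound added 60 min before 33 ng/mL (final) human OSM; after overnight stimulation at 37 °C, luciferase signal from a transiently transfected pSTAT1(2) reporter in HeLa cells was read, with LacZ as internal control. EC50 derived from percent-inhibition dose-response curves.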

[2] = molecular target: T1, human JAK3 (Homo sapiens, UniProt P52333); test: JAK3 inhibition assay; format: biochemical; details: recombinant human JAK3 catalytic domain; polyGT substrate
T1 construct: catalytic domain (amino acids 781-1124; catalog number PV3855); purchased Invitrogen PV3855
Outline: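 Radiometric kinase assay: 0.5 ng JAK3 with 2.5 μg polyGT in Tris pH 7.5/MgCl2 buffer, 1 μM ATP plus 0.25 μCi 33P-γ-ATP, 1% DMSO, 45 min at 30 °C, stopped with phosphoric acid.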

[3] = molecular target: T2, human JAK1 (Homo sapiens, UniProt P23458); test: JAK1 inhibition assay (polyGT substrate / Ulight-JAK1 peptide); format: biochemical; details: recombinant human JAK1 catalytic domain; polyGT or Ulight-JAK1 peptide assay
T2 construct: catalytic domain, amino acids 866-1154; catalog number PV4774; purchased Invitrogen PV4774
Outline: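 Signal scaled between vehicle and 10 μM staurosporine. Radiometric polyGT reactions ran 45 min at 30 °C, counted after phosphoric-acid stop. Ulight peptide reactions ran 60 min at room temperature, fluorescence read after adding Eu-PT66 detection mix with EDTA.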

[4] = molecular target: T3, human TYK2 (Homo sapiens, UniProt P29597); test: TYK2 inhibition assay; format: biochemical; details: recombinant human TYK2 catalytic domain, polyGT substrate
T3 construct: catalytic domain (amino acids 871-1187; catalog number 08-147); purchased Carna Biosciences 08-147
T3 sequence (P29597 871-1187): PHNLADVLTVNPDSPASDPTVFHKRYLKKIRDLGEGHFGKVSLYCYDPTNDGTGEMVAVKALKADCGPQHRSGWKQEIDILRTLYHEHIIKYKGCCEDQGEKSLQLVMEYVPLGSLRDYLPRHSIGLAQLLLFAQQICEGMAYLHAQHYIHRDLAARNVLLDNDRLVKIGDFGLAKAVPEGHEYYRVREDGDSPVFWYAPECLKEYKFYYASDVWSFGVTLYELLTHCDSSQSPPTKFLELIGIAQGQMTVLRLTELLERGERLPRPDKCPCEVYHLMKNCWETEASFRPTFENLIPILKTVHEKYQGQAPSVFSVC
Outline: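 Radiometric kinase reaction run 90 min at 30 °C, stopped with phosphoric acid, washed and scintillation-counted.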

T2 sequence (P23458 866-1154): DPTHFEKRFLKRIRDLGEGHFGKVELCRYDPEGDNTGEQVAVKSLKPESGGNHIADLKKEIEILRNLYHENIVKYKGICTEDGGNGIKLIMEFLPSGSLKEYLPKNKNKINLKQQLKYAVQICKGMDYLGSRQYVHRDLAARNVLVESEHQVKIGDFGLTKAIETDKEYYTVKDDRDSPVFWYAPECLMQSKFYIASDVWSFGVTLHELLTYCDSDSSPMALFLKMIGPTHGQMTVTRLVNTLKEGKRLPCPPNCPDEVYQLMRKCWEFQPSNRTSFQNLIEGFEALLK
T1 sequence (P52333 781-1124): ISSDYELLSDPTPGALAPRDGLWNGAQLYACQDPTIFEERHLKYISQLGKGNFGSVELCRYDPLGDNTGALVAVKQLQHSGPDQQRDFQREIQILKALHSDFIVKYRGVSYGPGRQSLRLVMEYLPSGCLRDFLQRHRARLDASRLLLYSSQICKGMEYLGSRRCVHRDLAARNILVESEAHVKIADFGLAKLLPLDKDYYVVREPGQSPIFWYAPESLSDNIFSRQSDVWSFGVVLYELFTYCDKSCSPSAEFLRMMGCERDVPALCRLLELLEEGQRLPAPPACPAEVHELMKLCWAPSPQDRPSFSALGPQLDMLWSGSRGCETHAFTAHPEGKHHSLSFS

Row | IC50 ([1]; Homo sapiens, HeLa) [nM] | IC50 [2] [nM] | IC50 [3] [nM] | IC50 [4] [nM] | IC50 [1] [nM] | Compound
1 | > 1000 | 0.01 to 100 | 0.01 to 100 | 0.01 to 100 | – | CCc1cc(C2=CCN(S(=O)(=O)CC(F)(F)F)CC2)ccc1N(C)c1cc2c(cn1)ncn2C [Compound 232, N-(2-ethyl-4-(1-(2,2,2-trifluoroethylsulfonyl)-1,2,3,6-tetrahydropyridin-4-yl)phenyl)-N,1-dimethyl-1H-imidazo[4,5-c]pyridin-6-amine]
2 | > 1000 | > 1000 | 0.01 to 100 | 101 to 500 | – | CCc1cc(-c2cnc(N(C)C)nc2)ccc1N(C)c1cc2c(cn1)ncn2C [Compound 129, N-(4-(2-(dimethylamino)pyrimidin-5-yl)-2-ethylphenyl)-N,1-dimethyl-1H-imidazo[4,5-c]pyridin-6-amine]
3 | > 1000 | > 1000 | 0.01 to 100 | 101 to 500 | – | CCc1cc(C2=CCN(C(=O)OC(C)(C)C)CC2)ccc1N(C)c1cc2c(cn1)ncn2C [Compound 154, tert-butyl 4-(3-ethyl-4-(methyl(1-methyl-1H-imidazo[4,5-c]pyridin-6-yl)amino)phenyl)-5,6-dihydropyridine-1(2H)-carboxylate]
4 | 501 to 1000 | 501 to 1000 | 0.01 to 100 | 0.01 to 100 | – | CCCn1cc(-c2ccc(N(C)c3cc4c(cn3)ncn4C)c(CC)c2)cn1 [Compound 240, N-(2-ethyl-4-(1-propyl-1H-pyrazol-4-yl)phenyl)-N,1-dimethyl-1H-imidazo[4,5-c]pyridin-6-amine]
5 | > 1000 | > 1000 | 0.01 to 100 | 501 to 1000 | – | CCc1cc(-c2cncc(S(C)(=O)=O)c2)ccc1N(C)c1cc2c(cn1)ncn2C [Compound 218, N-(2-ethyl-4-(5-(methylsulfonyl)pyridin-3-yl)phenyl)-N,1-dimethyl-1H-imidazo[4,5-c]pyridin-6-amine]
6 | 1 to 500 | 101 to 500 | 0.01 to 100 | 0.01 to 100 | – | CCc1cc(-c2cnn(Cc3ccc(C)cc3)c2)ccc1N(C)c1cc2c(cn1)ncn2C [Compound 237, N-(2-ethyl-4-(1-(4-methylbenzyl)-1H-pyrazol-4-yl)phenyl)-N,1-dimethyl-1H-imidazo[4,5-c]pyridin-6-amine]
7 | 501 to 1000 | 101 to 500 | 0.01 to 100 | 0.01 to 100 | – | CCc1cc(C2=CCN(C(=O)C3(C#N)CC3)CC2)ccc1N(C)c1cc2c(cn1)ncn2C [Compound 198, 1-(4-(3-ethyl-4-(methyl(1-methyl-1H-imidazo[4,5-c]pyridin-6-yl)amino)phenyl)-1,2,3,6-tetrahydropyridine-1-carbonyl)cyclopropane-carbonitrile]
8 | 1 to 500 | 101 to 500 | 0.01 to 100 | 0.01 to 100 | – | CCc1cc(-c2cnn(CC(N)=O)c2)ccc1N(C)c1cc2c(cn1)ncn2C [Compound 222, 2-(4-(3-Ethyl-4-(methyl(1-methyl-1H-imidazo[4,5-c]pyridin-6-yl)amino)phenyl)-1H-pyrazol-1-yl)acetamide]
9 | 1 to 500 | 101 to 500 | 0.01 to 100 | 0.01 to 100 | – | CCc1cc(C2=CCN(C(C)=O)CC2)ccc1N(C)c1cc2c(cn1)ncn2C [Compound 168, 1-(4-(3-ethyl-4-(methyl(1-methyl-1H-imidazo[4,5-c]pyridin-6-yl)amino)phenyl)-5,6-dihydropyridin-1(2H)-yl)ethanone]
10 | 501 to 1000 | 501 to 1000 | 0.01 to 100 | 101 to 500 | – | CCc1cc(O[C@@H]2CCN(S(C)(=O)=O)C2)ccc1N(C)c1cc2c(cn1)ncn2C [Compound 259, (R)-N-(2-ethyl-4-(1-(methylsulfonyl)pyrrolidin-3-yloxy)phenyl)-N,1-dimethyl-1H-imidazo[4,5-c]pyridin-6-amine]
11 | – | 101 to 500 | 0.01 to 100 | 0.01 to 100 | 501 to 1000 | CCc1cc(C2CCN(C(=O)CC#N)CC2)ccc1N(C)c1cc2c(cn1)ncn2C [Compound 224, 3-(4-(3-ethyl-4-(methyl(1-methyl-1H-imidazo[4,5-c]pyridin-6-yl)amino)phenyl)piperidin-1-yl)-3-oxopropanenitrile]
12 | 501 to 1000 | > 1000 | 0.01 to 100 | 0.01 to 100 | – | CCc1cc(-c2nnc(C)o2)ccc1N(C)c1cc2c(cn1)ncn2C [Compound 177, N-(2-Ethyl-4-(5-methyl-1,3,4-oxadiazol-2-yl)phenyl)-N,1-dimethyl-1H-imidazo[4,5-d]pyridin-6-amine]
13 | 1 to 500 | 101 to 500 | 0.01 to 100 | 101 to 500 | – | CCc1cc(-c2cnn(Cc3ccc(Cl)cc3)c2)ccc1N(C)c1cc2c(cn1)ncn2C [Compound 239, N-(4-(1-(4-chlorobenzyl)-1H-pyrazol-4-yl)-2-ethylphenyl)-N,1-dimethyl-1H-imidazo[4,5-c]pyridin-6-amine]
14 | > 1000 | > 1000 | 0.01 to 100 | 101 to 500 | – | CCc1cc(-c2cncc(C#N)c2)ccc1N(C)c1cc2c(cn1)ncn2C [Compound 189, 5-(3-ethyl-4-(methyl(1-methyl-1H-imidazo[4,5-c]pyridin-6-yl)amino)phenyl)nicotino-nitrile]
15 | 1 to 500 | 0.01 to 100 | 0.01 to 100 | 0.01 to 100 | – | CCc1cc(C2=CCN(C(=O)NC)CC2)ccc1N(C)c1cc2c(cn1)ncn2C [Compound 204, 4-(3-ethyl-4-(methyl(1-methyl-1H-imidazo[4,5-c]pyridin-6-yl)amino)phenyl)-N-methyl-5,6-dihydropyridine-1(2H)-carboxamide]
16 | 501 to 1000 | 101 to 500 | 0.01 to 100 | 0.01 to 100 | – | CCc1ccccc1N(CC(F)F)c1cc2c(cn1)ncn2C [Compound 284, (2,2-Difluoro-ethyl)-(2-ethyl-phenyl)-(1-methyl-1H-imidazo[4,5-c]pyridin-6-yl)-amine]
17 | 501 to 1000 | > 1000 | 0.01 to 100 | 101 to 500 | – | CCc1cc(CN2CCOCC2)ccc1N(C)c1cc2c(cn1)ncn2C [Compound 142, N-(2-ethyl-4-(morpholinomethyl)phenyl)-N,1-dimethyl-1H-imidazo[4,5-c]pyridin-6-amine]
18 | 501 to 1000 | 501 to 1000 | 0.01 to 100 | 0.01 to 100 | – | CCOc1ccc(N(C)c2cc3c(cn2)ncn3C)c(CC)c1 [Compound 272, N-(4-ethoxy-2-ethylphenyl)-N,1-dimethyl-1H-imidazo[4,5-c]pyridin-6-amine]
19 | 501 to 1000 | 101 to 500 | 0.01 to 100 | 0.01 to 100 | – | CCc1cc(-c2cnccc2Cl)ccc1N(C)c1cc2c(cn1)ncn2C [Compound 155, N-(4-(4-chloropyridin-3-yl)-2-ethylphenyl)-N,1-dimethyl-1H-imidazo[4,5-c]pyridin-6-amine]
20 | > 1000 | 101 to 500 | 0.01 to 100 | 0.01 to 100 | – | CCc1cc(C2=CCN(C(=O)NC3COC3)CC2)ccc1N(C)c1cc2c(cn1)ncn2C [Compound 215]
21 | 501 to 1000 | 501 to 1000 | 0.01 to 100 | 0.01 to 100 | – | CCc1cc(CN2CCN(S(C)(=O)=O)CC2)ccc1N(C)c1cc2c(cn1)ncn2C [Compound 136, N-(2-Ethyl-4-((4-(methylsulfonyl)piperazin-1-yl)methyl)phenyl)-N,1-dimethyl-1H-imidazo[4,5-c]pyridin-6-amine]
22 | 1 to 500 | 101 to 500 | 0.01 to 100 | 0.01 to 100 | – | CCc1cc(C2=CCOCC2)ccc1N(C)c1cc2c(cn1)ncn2C [Compound 153, N-(4-(3,6-dihydro-2H-pyran-4-yl)-2-ethylphenyl)-N,1-dimethyl-1H-imidazo[4,5-c]pyridin-6-amine]
23 | 1 to 500 | 0.01 to 100 | 0.01 to 100 | 0.01 to 100 | – | CCc1cc(C2=CCN(C(=O)C(C)NC(=O)OC(C)(C)C)CC2)ccc1N(C)c1cc2c(cn1)ncn2C (stereo not drawn) [Compound 249, tert-butyl 1-(4-(3-ethyl-4-(methyl(1-methyl-1H-imidazo[4,5-c]pyridin-6-yl)amino)phenyl)-5,6-dihydropyridin-1(2H)-yl)-1-oxopropan-2-ylcarbamate]
24 | 1 to 500 | 101 to 500 | 0.01 to 100 | 101 to 500 | – | CCc1cc(-c2cnn(CC)c2)ccc1N(C)c1cc2c(cn1)ncn2C [Compound 241, N-(2-ethyl-4-(1-ethyl-1H-pyrazol-4-yl)phenyl)-N,1-dimethyl-1H-imidazo[4,5-c]pyridin-6-amine]

— patent publication US20130217664A1, “NOVEL COMPOUNDS USEFUL FOR THE TREATMENT OF DEGENERATIVE AND INFLAMMATORY DISEASES” (priority 2012, published 2013)
